Reference: ChEMBL document CHEMBL3885861, “Open TG-GATES”

Species on record: Rattus norvegicus
Experiment: Open TG-GATES - Regimen: Daily Repeat
Type: toxicity, organism-based, Sprague-Dawley
Parameters: regimen Daily Repeat, gender Male, age 6 weeks
Details: in vivo, iv, route intravenous injection; for APTT / Bas / Eos / Fbg / Hb / Ht / Lym / MCH / MCHC / MCV / Mono / Neu / PT / Plat / RBC / Ret / WBC: tissue Blood; for KIDNEY_L / KIDNEY_R / KIDNEY_TOTAL: tissue Kidney; for LIVER: tissue Liver; for A/G / ALP / ALT / AST / BUN / CRE / Ca / Cl / DBIL / GLC / IP / K / LDH / Na / PL / RALB / TBIL / TC / TG / TP / gamma-GTP: tissue Plasma
[1] = 0 mg/kg, 72 h, dose level Control, time 3 day
[2] = 0 mg/kg, […], dose level Control, time 7 day
[3] = 0 mg/kg, […], dose level Control, time 14 day
[4] = 0 mg/kg, […], dose level Control, time 28 day
[5] = 2 mg/kg, 72 h, dose level Low, time 3 day
[6] = 2 mg/kg, […], dose level Low, time 7 day
[7] = 2 mg/kg, […], dose level Low, time 14 day
[8] = 2 mg/kg, […], dose level Low, time 28 day

## NCCBr [BROMOETHANAMINE]
[1]
  TERMINAL_BW: 229.6 g
  APTT: 23.7 s
  Bas: 0%
  Eos: 1%
  Fbg: 290.6 mg/dL
  Hb: 13.5 g/dL
  Ht: 39.3%
  Lym: 82.2%
  MCH: 21 pg
  MCHC: 34.4%
  MCV: 61.2 fL
  Mono: 2%
  Neu: 13.6%
  PT: 16.3 s
  Plat: 122.8 x10_4/uL
  RBC: 641.2 x10_4/ul
  Ret: 4.8%
  WBC: 116.1 x10_2/uL
  KIDNEY_L: 1 g
  KIDNEY_R: 1 g
  KIDNEY_TOTAL: 2 g
  LIVER: 10.3 g
  A/G: 1.2
  ALP: 1818.6 IU/L
  ALT: 45.2 IU/L
  AST: 72.2 IU/L
  BUN: 16 mg/dL
  CRE: 0.2 mg/dL
  Ca: 10.7 mg/dL
  Cl: 106 meq/L
  DBIL: 0 mg/dL
  GLC: 181 mg/dL
  IP: 7.7 mg/dL
  K: 4.7 meq/L
  LDH: 170 IU/L
  Na: 141.4 meq/L
  PL: 132 mg/dL
  RALB: 3 g/dL
  TBIL: 0.006 mg/dL
  TC: 68.4 mg/dL
  TG: 76 mg/dL
  TP: 5.5 g/dL
  gamma-GTP: 1.4 IU/L
[2]
  TERMINAL_BW: 257 g
  APTT: 23.2 s
  Bas: 0%
  Eos: 1%
  Fbg: 288.8 mg/dL
  Hb: 13.7 g/dL
  Ht: 39.5%
  Lym: 82.8%
  MCH: 21 pg
  MCHC: 34.6%
  MCV: 60.9 fL
  Mono: 2.4%
  Neu: 13.2%
  PT: 15.9 s
  Plat: 132.6 x10_4/uL
  RBC: 649.4 x10_4/ul
  Ret: 4.4%
  WBC: 113.7 x10_2/uL
  KIDNEY_L: 1.1 g
  KIDNEY_R: 1.1 g
  KIDNEY_TOTAL: 2.2 g
  LIVER: 11.9 g
  A/G: 1.1
  ALP: 1565.4 IU/L
  ALT: 39 IU/L
  AST: 68.2 IU/L
  BUN: 17.6 mg/dL
  CRE: 0.2 mg/dL
  Ca: 10.7 mg/dL
  Cl: 104.6 meq/L
  DBIL: 0 mg/dL
  GLC: 188.2 mg/dL
  IP: 6.9 mg/dL
  K: 4.7 meq/L
  LDH: 190.6 IU/L
  Na: 139.8 meq/L
  PL: 138.6 mg/dL
  RALB: 2.9 g/dL
  TBIL: 0.008 mg/dL
  TC: 71.2 mg/dL
  TG: 94.8 mg/dL
  TP: 5.5 g/dL
  gamma-GTP: 2.4 IU/L
[3]
  TERMINAL_BW: 314.6 g
  APTT: 23.9 s
  Bas: 0%
  Eos: 1.2%
  Fbg: 301 mg/dL
  Hb: 14 g/dL
  Ht: 40.1%
  Lym: 85%
  MCH: 20.6 pg
  MCHC: 34.9%
  MCV: 59 fL
  Mono: 2.2%
  Neu: 10.6%
  PT: 15.9 s
  Plat: 117.9 x10_4/uL
  RBC: 680.2 x10_4/ul
  Ret: 3.6%
  WBC: 89.2 x10_2/uL
  KIDNEY_L: 1.3 g
  KIDNEY_R: 1.3 g
  KIDNEY_TOTAL: 2.6 g
  LIVER: 13.5 g
  A/G: 1.1
  ALP: 1268.2 IU/L
  ALT: 42 IU/L
  AST: 72.8 IU/L
  BUN: 18.4 mg/dL
  CRE: 0.2 mg/dL
  Ca: 10.9 mg/dL
  Cl: 106 meq/L
  DBIL: 0 mg/dL
  GLC: 183.8 mg/dL
  IP: 7.4 mg/dL
  K: 4.5 meq/L
  LDH: 176 IU/L
  Na: 143.8 meq/L
  PL: 139.2 mg/dL
  RALB: 3.1 g/dL
  TBIL: 0.004 mg/dL
  TC: 71.6 mg/dL
  TG: 97.8 mg/dL
  TP: 5.8 g/dL
  gamma-GTP: 2.4 IU/L
[4]
  TERMINAL_BW: 359.9 g
  APTT: 25.5 s
  Bas: 0%
  Eos: 1.8%
  Fbg: 297 mg/dL
  Hb: 15.7 g/dL
  Ht: 42.5%
  Lym: 84.8%
  MCH: 20.6 pg
  MCHC: 36.9%
  MCV: 55.8 fL
  Mono: 2%
  Neu: 10.8%
  PT: 16.7 s
  Plat: 100.6 x10_4/uL
  RBC: 762.2 x10_4/ul
  Ret: 2.3%
  WBC: 126.1 x10_2/uL
  KIDNEY_L: 1.3 g
  KIDNEY_R: 1.4 g
  KIDNEY_TOTAL: 2.7 g
  LIVER: 13.9 g
  A/G: 1.1
  ALP: 1244.2 IU/L
  ALT: 39.2 IU/L
  AST: 67.8 IU/L
  BUN: 19.6 mg/dL
  CRE: 0.2 mg/dL
  Ca: 10.4 mg/dL
  Cl: 104.4 meq/L
  DBIL: 0 mg/dL
  GLC: 203.4 mg/dL
  IP: 6.4 mg/dL
  K: 4.2 meq/L
  LDH: 147 IU/L
  Na: 144.2 meq/L
  PL: 137 mg/dL
  RALB: 3.1 g/dL
  TBIL: 0.01 mg/dL
  TC: 66 mg/dL
  TG: 124.4 mg/dL
  TP: 6 g/dL
  gamma-GTP: 2.8 IU/L
[5]
  TERMINAL_BW: 236.2 g
  APTT: 22.5 s
  Bas: 0%
  Eos: 1%
  Fbg: 280.4 mg/dL
  Hb: 13.2 g/dL
  Ht: 38.3%
  Lym: 83.2%
  MCH: 21.2 pg
  MCHC: 34.4%
  MCV: 61.6 fL
  Mono: 2.8%
  Neu: 12%
  PT: 16.2 s
  Plat: 119.2 x10_4/uL
  RBC: 620.8 x10_4/ul
  Ret: 4.7%
  WBC: 80.2 x10_2/uL
  KIDNEY_L: 1 g
  KIDNEY_R: 1 g
  KIDNEY_TOTAL: 2 g
  LIVER: 11.1 g
  A/G: 1.3
  ALP: 1553.4 IU/L
  ALT: 39.6 IU/L
  AST: 68.4 IU/L
  BUN: 16.2 mg/dL
  CRE: 0.2 mg/dL
  Ca: 10.8 mg/dL
  Cl: 106.4 meq/L
  DBIL: 0 mg/dL
  GLC: 178.6 mg/dL
  IP: 7.2 mg/dL
  K: 4.6 meq/L
  LDH: 195.6 IU/L
  Na: 141.8 meq/L
  PL: 143.4 mg/dL
  RALB: 3.1 g/dL
  TBIL: 0.006 mg/dL
  TC: 73.6 mg/dL
  TG: 113 mg/dL
  TP: 5.6 g/dL
  gamma-GTP: 2 IU/L
[6]
  TERMINAL_BW: 254.2 g
  APTT: 22.7 s
  Bas: 0%
  Eos: 0.8%
  Fbg: 278.8 mg/dL
  Hb: 13.5 g/dL
  Ht: 39.3%
  Lym: 80.6%
  MCH: 21 pg
  MCHC: 34.4%
  MCV: 61 fL
  Mono: 2.8%
  Neu: 15%
  PT: 15.8 s
  Plat: 116.6 x10_4/uL
  RBC: 644 x10_4/ul
  Ret: 3.9%
  WBC: 126.7 x10_2/uL
  KIDNEY_L: 1.1 g
  KIDNEY_R: 1.1 g
  KIDNEY_TOTAL: 2.2 g
  LIVER: 11.6 g
  A/G: 1.2
  ALP: 1420.8 IU/L
  ALT: 36.2 IU/L
  AST: 64 IU/L
  BUN: 16.2 mg/dL
  CRE: 0.2 mg/dL
  Ca: 10.7 mg/dL
  Cl: 105.8 meq/L
  DBIL: 0 mg/dL
  GLC: 181 mg/dL
  IP: 7 mg/dL
  K: 4.6 meq/L
  LDH: 158.8 IU/L
  Na: 140.8 meq/L
  PL: 141 mg/dL
  RALB: 2.9 g/dL
  TBIL: 0.01 mg/dL
  TC: 75.2 mg/dL
  TG: 93 mg/dL
  TP: 5.4 g/dL
  gamma-GTP: 2 IU/L
[7]
  TERMINAL_BW: 302.2 g
  APTT: 23 s
  Bas: 0%
  Eos: 1%
  Fbg: 310.8 mg/dL
  Hb: 14.1 g/dL
  Ht: 40.3%
  Lym: 84.8%
  MCH: 20.5 pg
  MCHC: 35%
  MCV: 58.7 fL
  Mono: 2.2%
  Neu: 11.4%
  PT: 15.8 s
  Plat: 116.5 x10_4/uL
  RBC: 686.6 x10_4/ul
  Ret: 3.3%
  WBC: 104.7 x10_2/uL
  KIDNEY_L: 1.2 g
  KIDNEY_R: 1.2 g
  KIDNEY_TOTAL: 2.4 g
  LIVER: 13.5 g
  A/G: 1.1
  ALP: 1559.2 IU/L
  ALT: 40.6 IU/L
  AST: 67.6 IU/L
  BUN: 17.6 mg/dL
  CRE: 0.2 mg/dL
  Ca: 10.9 mg/dL
  Cl: 107 meq/L
  DBIL: 0 mg/dL
  GLC: 184 mg/dL
  IP: 7.1 mg/dL
  K: 4.3 meq/L
  LDH: 168.6 IU/L
  Na: 144.4 meq/L
  PL: 149 mg/dL
  RALB: 3 g/dL
  TBIL: 0 mg/dL
  TC: 75.4 mg/dL
  TG: 123 mg/dL
  TP: 5.7 g/dL
  gamma-GTP: 2.6 IU/L
[8]
  TERMINAL_BW: 366.5 g
  APTT: 24.7 s
  Bas: 0%
  Eos: 1%
  Fbg: 305.8 mg/dL
  Hb: 15.7 g/dL
  Ht: 42.4%
  Lym: 85.4%
  MCH: 20.4 pg
  MCHC: 37.1%
  MCV: 54.9 fL
  Mono: 1.4%
  Neu: 10.6%
  PT: 16.4 s
  Plat: 110.2 x10_4/uL
  RBC: 772.8 x10_4/ul
  Ret: 1.9%
  WBC: 107.8 x10_2/uL
  KIDNEY_L: 1.4 g
  KIDNEY_R: 1.4 g
  KIDNEY_TOTAL: 2.8 g
  LIVER: 15 g
  A/G: 1.1
  ALP: 1213.2 IU/L
  ALT: 40.8 IU/L
  AST: 66 IU/L
  BUN: 18.4 mg/dL
  CRE: 0.2 mg/dL
  Ca: 10.4 mg/dL
  Cl: 105.6 meq/L
  DBIL: 0 mg/dL
  GLC: 188.6 mg/dL
  IP: 6.6 mg/dL
  K: 4.1 meq/L
  LDH: 123 IU/L
  Na: 145.8 meq/L
  PL: 141.8 mg/dL
  RALB: 3.2 g/dL
  TBIL: 0.01 mg/dL
  TC: 67.4 mg/dL
  TG: 133.8 mg/dL
  TP: 6 g/dL
  gamma-GTP: 3 IU/L
